Results reported in US20090176742A1, “METHODS RELATING TO THE TREATMENT OF FIBROTIC DISORDERS” (UNIVERSITY OF WASHINGTON, priority 2005, published 2009).

Tests used:
E-Cadherin = assay: Western blot for E-Cadherin on whole cell lysates of cultured IPF patient fibroblasts; format: cell-based, human
Protocol: (§1) FIG. 20. FIG. 20 depicts a Western blots for S100A4 (also know as FSP-1 or fibroblast specific protein-1) and E-Cadherin performed on whole cell lysates of IPF patient fibroblasts cultured in RPMI1640+10% FBS for 2 days and treated with ICG-001.
(§2) Western blots for S100A4 (also know as FSP-1 or fibroblast specific protein-1) and E-Cadherin were performed on whole cell lysates (FIG. 20).

[1] = tested on: C57/B16 mice treated with intratracheal bleomycin; assay: Murine model of bleomycin induced pulmonary fibrosis; lung sections stained with trichrome for collagen, plus body weight and survival; format: in vivo
From the text: FIG. 15. FIG. 15 depicts lung sections taken from C57/B16 mice treated with intratracheal bleomycin (lower left) or saline (upper left) for 5 days and stained with trichrome ([…]) to stain collagen.
Murine models of bleomycin induced fibrosis have been developed in order to study […] disease progression.
There is an absence of airway epithelium in lower left compared to upper left (see arrow heads) and extensive collagen deposition (lower left). […] Of interest is the upper right (saline treatment) showing lack of normal airway epithelialization, extensive collagen deposition and intra-airway hypercellularity (fibroblasts and inflammatory influx).
The procedures were performed using the animal model as described in Example 2 (FIG. 15), and the sectioned lungs were stained for collagen.

[2] = tested on: TCF/β-catenin transcription; assay: Bat-Gal transgenic mice given intratracheal bleomycin; lung sections stained with X-Gal (reporter for TCF/β-catenin transcription); format: in vivo; conditions: ICG-001 5 mg/Kg/day via minipump (subcutaneously)
Protocol: FIG. 14. FIG. 14A-C depicts lung sections taken from Bat-Gal transgenic mice given intratracheal saline or bleomycin and either treated with ICG-001 (5 mgs/Kg/day subcutaneously) or saline as vehicle control. The lungs were sectioned and stained with X-Gal (blue color.) FIG. 14A, intratracheal bleo+saline; FIG. 14B, intracheal bleo+ICG-001; FIG. 14C, saline+saline.
Using this murine model of pulmonary fibrosis in transgenic Bat-Gal mice, ICG-001 5 mg/Kg/day, administered via minipump) blocked >95% of bleomycin-induced TCF/β-catenin transcription.
These mice have a Beta-Galactosidase transgene driven by a TCF/Catenin driven promoter (i.e. a read out for activated Wnt/catenin signaling). The mice were given intratracheal saline or bleomycin and either treated with ICG-001 (5 mgs/Kg/day subcutaneously) or saline as vehicle control. The mice were sacrificed and the lungs sectioned and stained with X-Gal (blue color) A) intratracheal bleo+saline. B) intracheal bleo+ICG-001 C) saline+saline.
The dose was selected because ICG-001 reduces TCF/β-Catenin driven β-Galactosidase expression >95% at 5 mgs/Kg/day.

collagen1A2 = assay: RT-PCR for collagen1A2 in bleomycin treated mice; format: in vivo; conditions: ICG-001 5 mgs/Kg/day s.c.
From the text: (§3) FIGS. 16 and 17 show RT-PCR data for S100A4 (FIG. 16) and collagen1A2 (FIG. 17), which are increased in the bleomycin treated mice (treated with saline control).

S100A4 = assay: RT-PCR for S100A4 in bleomycin treated mice; format: in vivo; conditions: ICG-001 5 mgs/Kg/day s.c.
From the text: as §3

Aquaporin 5 = Aquaporin 5 immunostaining of lung tissue in the bleomycin mouse model; format: in vivo, mice; conditions: bleomycin and ICG-001 versus bleomycin alone
From the text: FIG. 22. […] Bleomycin alone, FIG. 22A; bleomycin and ICG-001, FIG. 22B; saline FIG. 22C.
The aquaporins are water channels expressed in a variety of cell types. Aquaporin 5 is involved in the transportation of water across the apical surface of the alveolar epithelium and the epithelia of the submucosal glands in the upper airway and nasopharynx. (Krane, C. M., P.N.A.S. 98:14192-4, 2001; Yang, F. J. Biol. Chem. 278:32173-80, 2003). Because aquaporin 5 is a marker of Type 1 (differentiated) lung epithelium, its expression was assayed in lung tissue created with bleomycin (FIG. 22A), bleomycin and ICG-001 (FIG. 22B), and saline (FIG. 22C), using the animal model as described in Example 2 (FIG. 15), and immunostaining with an antibody specific for Aquaporin 5.

[3] = tested on: S100A4 (FSP-1, fibroblast specific protein-1); assay: Western blot for S100A4 on whole cell lysates of cultured IPF fibroblasts; format: cell-based, human
Protocol: as §1, §2

[4] = IPF patient fibroblasts cultured for 2 days
[5] = bleomycin and ICG-001 versus bleomycin
[6] = bleomycin for 5 days, then ICG-001 5 mgs/Kg/day for 10 days from the sixth day

O=C1[C@H](Cc2ccc(O)cc2)N2C(=O)CCN(C(=O)NCc3ccccc3)[C@H]2CN1Cc1cccc2ccccc12 [ICG-001]
E-cadherin expression at the mRNA level (E-Cadherin; IPF patient fibroblasts): also true at the mRNA level | E-cadherin expression (Western blot, whole cell lysates) (E-Cadherin; [4]): increased | alveolar fibrosis (lung sections stained for collagen) [1, 5]: prevented | interstitial fibrosis (lung sections stained for collagen) [1, 5]: prevented | body weight ([1]; bleomycin for 5 days, then ICG-001 5 mgs/Kg/day for 10 days): regained normal body weight | airway appearance in trichrome-stained lung sections [1, 6]: the airway looks essentially normal | collagen levels (trichrome stain) [1, 6]: normal collagen levels | survival ([1]; bleomycin for 5 days, then ICG-001 5 mgs/Kg/day for 10 days, untreated controls did not survive): survived | fibrosis over the 25 days of treatment ([1]; bleomycin mouse model, 25 days of treatment): reversed fibrosis | disease progression, as judged by reduced mortality, histopathology and endogenous gene expression ([1]; bleomycin murine model, 5 mg/Kg/day): not only halted but reversed disease progression | bleomycin-induced TCF/β-catenin transcription (TCF/β-Catenin driven β-Galactosidase expression) blocked/reduced [2]: > 95% | collagen1A2 message (RT-PCR) (collagen1A2): reduced essentially to negative control | S100A4 message (RT-PCR) (S100A4): reduced essentially to negative control | aquaporin 5 expression (immunostaining, marker of Type 1 lung epithelium) (Aquaporin 5): greatly increased | S100A4 expression (whole cell lysates) ([3]; ATCC IPF cells cultured in RPMI1640+10% FBS for 2 days): decreased | S100A4 expression at the mRNA level ([3]; IPF patient fibroblasts): also true at the mRNA level | S100A4 expression (Western blot, whole cell lysates) [3, 4]: decreased
